Measurements taken from the supplement of paper PMC10307832.

Assays:
Experiment in all cases: relative viability (nuclei count vs DMSO), 5 days (fraction); higher = more cells survive
[1] = compound: C=CCNC1=C2C[C@@H](C)C[C@H](OC)[C@H](O)[C@@H](C)/C=C(\C)[C@H](OC(N)=O)[C@@H](OC)/C=C\C=C(/C)C(=O)NC(=CC1=O)C2=O [17-AAG] + CC(=O)c1c(C)c2cnc(Nc3ccc(N4CCNCC4)cn3)nc2n(C2CCCC2)c1=O [Palbociclib] (partner 0.5 µM)
How it was run: (§1)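 Relative viability equals treated-well nuclei counts divided by vehicle-well nuclei counts. Counts came from 4× images of lung cancer cell lines grown in 1536-well plates for 5 days after pin-tool dosing on the day after seeding. Dosing used one drug alone or a fixed anchor-drug dose plus five library-drug doses (not always all listed) in √10 steps, and values are medians of duplicate plates.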

[2] = compound: C=CCNC1=C2C[C@@H](C)C[C@H](OC)[C@H](O)[C@@H](C)/C=C(\C)[C@H](OC(N)=O)[C@@H](OC)/C=C\C=C(/C)C(=O)NC(=CC1=O)C2=O [17-AAG] + CC(C)C[C@H](NC(=O)[C@H](Cc1ccccc1)NC(=O)c1cnccn1)B(O)O [Bortezomib] (partner 0.002 µM)
How it was run: as §1

[3] = compound: C=CCNC1=C2C[C@@H](C)C[C@H](OC)[C@H](O)[C@@H](C)/C=C(\C)[C@H](OC(N)=O)[C@@H](OC)/C=C\C=C(/C)C(=O)NC(=CC1=O)C2=O [17-AAG] + COc1cc2c(Oc3ccc(NC(=O)C4(C(=O)Nc5ccc(F)cc5)CC4)cc3F)ccnc2cc1OCCCN1CCOCC1 [Foretinib] (partner 0.25 µM)
How it was run: as §1

[4] = compound: C=CCNC1=C2C[C@@H](C)C[C@H](OC)[C@H](O)[C@@H](C)/C=C(\C)[C@H](OC(N)=O)[C@@H](OC)/C=C\C=C(/C)C(=O)NC(=CC1=O)C2=O [17-AAG] + CS(=O)(=O)N1CCN(Cc2cc3nc(-c4cccc5[nH]ncc45)nc(N4CCOCC4)c3s2)CC1 [Pictilisib] (partner 1 µM)
How it was run: as §1

Row | Cell Line | relative viability ([1]; first compound 0.00128 µM) | relative viability ([1]; first compound 0.004048 µM) | relative viability ([1]; first compound 0.0128 µM) | relative viability ([1]; first compound 0.04048 µM) | relative viability ([1]; first compound 0.128 µM) | relative viability ([2]; first compound 0.00128 µM) | relative viability ([2]; first compound 0.004048 µM) | relative viability ([2]; first compound 0.0128 µM) | relative viability ([2]; first compound 0.04048 µM) | relative viability ([2]; first compound 0.128 µM) | relative viability ([3]; first compound 0.00128 µM) | relative viability ([3]; first compound 0.004048 µM) | relative viability ([3]; first compound 0.0128 µM) | relative viability ([3]; first compound 0.04048 µM) | relative viability ([3]; first compound 0.128 µM) | relative viability ([4]; first compound 0.00128 µM) | relative viability ([4]; first compound 0.004048 µM) | relative viability ([4]; first compound 0.0128 µM) | relative viability ([4]; first compound 0.04048 µM) | relative viability ([4]; first compound 0.128 µM)
1 | ABC-1 | 0.701 | 0.805 | 0.772 | 0.79 | 0.602 | 0.356 | 0.348 | 0.355 | 0.287 | 0.246 | 0.9 | 0.882 | 1.08 | 1.05 | 0.432 | 0.794 | 0.777 | 0.829 | 0.81 | 0.651
2 | BEN | 0.466 | 0.484 | 0.54 | 0.491 | 0.337 | 0.917 | 1.14 | 0.997 | 0.64 | 0.232 | 0.626 | 0.767 | 0.649 | 0.517 | 0.411 | 0.569 | 0.72 | 0.656 | 0.346 | 0.183
3 | CAL-12T | 0.499 | 0.364 | 0.486 | 0.191 | 0.167 | 1.11 | 0.899 | 0.904 | 0.726 | 0.469 | 1.12 | 1.07 | 1.08 | 0.608 | 0.202 | 0.541 | 0.601 | 0.417 | 0.377 | 0.193
4 | COR-L23 | 0.278 | 0.338 | 0.336 | 0.198 | 0.0966 | 1.12 | 0.948 | 0.946 | 0.408 | 0.0841 | 0.938 | 0.943 | 0.846 | 0.854 | 0.143 | 0.703 | 0.77 | 0.789 | 0.38 | 0.083
5 | COR-L 105 | 0.431 | 0.389 | 0.406 | 0.356 | 0.384 | 0.548 | 0.729 | 0.746 | 0.581 | 0.507 | 0.965 | 1 | 0.805 | 0.715 | 0.31 | 0.394 | 0.434 | 0.435 | 0.324 | 0.298
6 | ChaGo-K-1 | 0.956 | 0.922 | 0.768 | 0.938 | 0.703 | 1.01 | 0.971 | 0.981 | 0.304 | 0.297 | 0.916 | 0.829 | 0.851 | 0.861 | 0.313 | 0.759 | 0.801 | 0.7 | 0.477 | 0.26
7 | EKVX | 0.357 | 0.391 | 0.363 | 0.152 | 0.127 | 1.06 | 0.971 | 0.994 | 0.421 | 0.149 | 0.895 | 0.805 | 0.175 | 0.192 | 0.131 | 0.43 | 0.472 | 0.528 | 0.142 | 0.101
8 | EMC-BAC-2 | 0.544 | 0.525 | 0.521 | 0.462 | 0.4 | 1.15 | 1.11 | 1.13 | 1.01 | 0.209 | 1.04 | 1.05 | 1.09 | 0.353 | 0.316 | 0.605 | 0.598 | 0.586 | 0.274 | 0.202
9 | EPLC-272H | 0.34 | 0.323 | 0.348 | 0.147 | 0.0684 | 0.89 | 0.821 | 0.97 | 0.855 | 0.171 | 0.704 | 0.412 | 0.772 | 0.216 | 0.125 | 0.291 | 0.32 | 0.291 | 0.169 | 0.168
10 | H3255 | 0.306 | 0.292 | 0.299 | 0.247 | 0.26 | 0.864 | 0.722 | 0.46 | 0.237 | 0.205 | 0.943 | 0.874 | 0.819 | 0.252 | 0.249 | 0.424 | 0.453 | 0.463 | 0.203 | 0.154
11 | HARA | 0.248 | 0.27 | 0.261 | 0.263 | 0.215 | 1.08 | 1.11 | 1.14 | 1.14 | 0.187 | 0.884 | 0.911 | 0.865 | 0.792 | 0.455 | 0.49 | 0.445 | 0.385 | 0.16 | 0.164
12 | HCC-15 | 0.693 | 0.687 | 0.429 | 0.31 | 0.149 | 1.01 | 0.816 | 0.502 | 0.542 | 0.127 | 0.907 | 0.718 | 0.29 | 0.137 | 0.12 | 0.73 | 0.774 | 0.508 | 0.187 | 0.121
13 | HCC-78 | 0.47 | 0.464 | 0.475 | 0.442 | 0.424 | 0.538 | 0.482 | 0.539 | 0.368 | 0.6 | 0.525 | 0.574 | 0.611 | 0.516 | 0.499 | 0.238 |  | 0.333 | 0.24 | 0.212
14 | HCC-366 | 0.415 | 0.361 | 0.126 | 0.0306 | 0.031 | 0.949 | 0.785 | 0.0604 | 0.0267 | 0.0245 | 0.958 | 0.968 | 0.89 | 0.126 | 0.0491 | 0.16 | 0.0822 | 0.0477 | 0.0368 | 0.0284
15 | HCC-827 | 0.47 | 0.463 | 0.499 |  | 0.325 | 0.962 | 0.995 | 1.04 |  | 0.849 | 1.06 | 0.978 | 1.03 |  | 0.727 | 1.21 | 1.03 | 0.923 |  | 1.02
16 | HOP-62 | 0.465 | 0.451 | 0.403 | 0.268 | 0.273 | 0.701 | 0.725 | 0.748 | 0.46 | 0.117 | 1.16 | 1.05 | 0.858 | 0.549 | 0.382 | 0.811 | 0.807 | 0.748 | 0.11 | 0.0928
17 | LC-2-ad | 0.553 | 0.53 | 0.494 | 0.486 | 0.172 | 0.97 | 1.05 | 0.665 | 0.119 | 0.105 | 0.891 | 0.898 | 0.515 | 0.343 | 0.261 | 0.567 | 0.617 | 0.123 | 0.124 | 0.0943
18 | LCLC-97TM1 | 0.264 | 0.213 | 0.199 | 0.251 | 0.209 | 0.431 | 0.614 | 0.249 | 0.125 | 0.0923 | 0.973 | 0.897 | 0.958 | 0.991 | 0.631 | 0.263 | 0.228 | 0.211 | 0.13 | 0.104
19 | LCLC-103H | 0.5 | 0.471 | 0.489 | 0.477 | 0.464 | 1.02 | 1.17 | 1.02 | 1.13 | 1.09 | 0.874 | 0.818 | 0.736 | 0.932 | 1.01 | 0.58 | 0.583 | 0.669 | 0.73 | 0.712
20 | LOU-NH91 | 0.537 | 0.51 | 0.463 | 0.349 | 0.394 | 0.483 | 0.512 | 0.394 | 0.401 | 0.381 | 0.868 | 0.727 | 0.633 | 0.36 | 0.279 | 0.573 | 0.515 | 0.451 | 0.384 | 0.332
21 | LU99A | 0.434 | 0.42 | 0.384 | 0.454 | 0.137 | 1.06 | 1.05 | 0.672 | 0.445 | 0.119 | 0.931 | 0.783 | 0.719 | 0.222 | 0.213 | 0.308 | 0.377 | 0.232 | 0.228 | 0.144
22 | LXF-289 | 0.606 | 0.55 | 0.602 | 0.545 | 0.227 | 0.99 | 0.994 | 0.815 | 0.478 | 0.108 | 1.05 | 0.961 | 0.879 | 0.381 | 0.152 | 0.823 | 0.805 | 0.239 | 0.107 | 0.0836
23 | NCI-H23 | 0.503 | 0.456 | 0.292 | 0.192 | 0.14 | 0.92 | 0.635 | 0.232 | 0.168 | 0.127 | 0.906 | 1.04 | 0.842 | 0.641 | 0.182 | 0.468 | 0.517 | 0.224 | 0.179 | 0.145
24 | NCI-H322M | 0.463 | 0.511 | 0.468 | 0.425 | 0.366 | 1.28 | 1.38 | 1.35 | 0.929 | 0.493 | 0.971 | 1.04 | 0.577 | 0.306 | 0.323 | 0.553 | 0.564 | 0.523 | 0.259 | 0.279
25 | NCI-H441 | 0.283 | 0.166 | 0.108 | 0.116 | 0.107 | 0.506 | 0.395 | 0.199 | 0.181 | 0.14 | 0.903 | 0.862 | 0.39 | 0.211 | 0.0805 | 0.582 | 0.334 | 0.285 | 0.216 | 0.124
26 | NCI-H460 | 0.31 | 0.117 | 0.016 | 0.0279 | 0.0159 | 1.03 | 0.677 | 0.0227 | 0.0175 | 0.0128 | 0.983 | 0.907 | 0.063 | 0.0391 | 0.0257 | 0.404 | 0.462 | 0.193 | 0.0668 | 0.0737
27 | NCI-H520 | 0.232 | 0.228 | 0.175 | 0.153 | 0.133 | 0.512 | 0.58 | 0.251 | 0.14 | 0.0925 | 0.763 | 0.56 | 0.702 | 0.169 | 0.142 | 0.275 | 0.254 | 0.207 | 0.167 | 0.161
